Laboratory results: ChEMBL document CHEMBL2407065, “Discovery of 7-aminofuro[2,3-c]pyridine inhibitors of TAK1: optimization of kinase selectivity and pharmacokinetics” (Bioorg Med Chem Lett, 2013)

Columns and labels:
[1] = molecular target: TAK1/TAB1 (Homo sapiens, UniProt O43318); assay: Inhibition of TAK1-TAB1 (unknown origin) by alphascreen assay in presence of ATP; format: protein-complex assay
[2] = molecular target: Vascular endothelial growth factor receptor 2 (Homo sapiens, UniProt P35968); assay: Inhibition of KDR autophosphorylation overexpressed in VEGF-stimulated human HEK293 cells; format: cell-based
[3] = molecular target: Aurora kinase B (Homo sapiens, UniProt Q96GD4); assay: Inhibition of aurora B kinase in human HT-29 cells assessed as inhibition of histone H3 S10 phosphorylation; format: cell-based
[4] = molecular target: T1, Mitogen-activated protein kinase kinase kinase 7 (Homo sapiens, UniProt O43318); assay: Inhibition of TAK1 in human HCT116 cells assessed as inhibition of TNF-alpha-stimulated JNK phosphorylation; format: cell-based, HCT-116
T1 sequence (O43318 whole entry): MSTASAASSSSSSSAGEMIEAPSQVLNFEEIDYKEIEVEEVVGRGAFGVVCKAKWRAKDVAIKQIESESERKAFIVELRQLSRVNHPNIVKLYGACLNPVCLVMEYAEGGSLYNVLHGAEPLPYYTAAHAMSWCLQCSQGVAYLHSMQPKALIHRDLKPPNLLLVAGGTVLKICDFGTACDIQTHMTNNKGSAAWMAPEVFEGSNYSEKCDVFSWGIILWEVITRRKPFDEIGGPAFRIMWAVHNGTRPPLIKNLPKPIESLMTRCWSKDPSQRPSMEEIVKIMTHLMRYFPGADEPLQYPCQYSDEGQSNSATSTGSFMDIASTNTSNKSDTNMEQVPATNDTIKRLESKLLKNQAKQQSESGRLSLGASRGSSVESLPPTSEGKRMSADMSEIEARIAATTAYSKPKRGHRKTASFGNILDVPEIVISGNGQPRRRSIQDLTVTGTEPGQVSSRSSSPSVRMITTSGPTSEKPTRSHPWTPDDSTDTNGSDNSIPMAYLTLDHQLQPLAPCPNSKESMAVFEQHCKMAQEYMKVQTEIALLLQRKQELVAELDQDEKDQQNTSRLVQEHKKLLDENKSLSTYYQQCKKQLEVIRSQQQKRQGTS

[5] = Metabolic stability in human liver microsomes assessed as extraction ratio; format: ADME, Microsome; conditions: read-out: ERH
[6] = Metabolic stability in mouse liver microsomes assessed as extraction ratio; format: ADME, Microsome; conditions: read-out: ERH
[7] = Tmax in mouse at 20 mg/kg, po; format: ADME, organism-based; set-up: dose 20 mg/kg, route oral; conditions: in vivo
[8] = Cmax in mouse at 20 mg/kg, po; format: ADME, organism-based; set-up: dose 20 mg/kg, route oral; conditions: in vivo
[9] = Volume of distribution at steady state in mouse at 2 mg/kg, iv; format: ADME, organism-based; set-up: dose 2 mg/kg, route intravenous; conditions: in vivo, read-out: Vdss
[10] = Half life in mouse at 2 mg/kg, iv; format: ADME, organism-based; set-up: dose 2 mg/kg, route intravenous; conditions: in vivo
[11] = Clearance in mouse at 2 mg/kg, iv; format: ADME, organism-based; set-up: dose 2 mg/kg, route intravenous; conditions: in vivo
[12] = AUC (0 to infinity) in mouse at 2 mg/kg, iv; format: ADME, organism-based; set-up: dose 2 mg/kg, route intravenous, time infinity; conditions: plasma
[13] = AUC (0 to infinity) in mouse at 20 mg/kg, po; format: ADME, organism-based; set-up: time infinity, dose 20 mg/kg, route oral; conditions: plasma
[14] = Oral bioavailability in mouse at 20 mg/kg; format: ADME, organism-based; conditions: in vivo
[15] = tested on: Liver microsomes; assay: Drug metabolism in human liver microsomes assessed as M+176 formation; format: ADME, Microsome
[16] = AUC (0 to last) in mouse at 20 mg/kg, po; format: ADME, organism-based; set-up: time 0 - last, dose 20 mg/kg, route oral; conditions: plasma
[17] = Drug metabolism in mouse liver microsomes assessed as M+176 formation; format: ADME, Microsome
[18] = Antitumor activity against human TOV21G cells xenografted in CD-1 nude mouse assessed as tumor growth inhibition at 100 mg/kg, sc qd administered for 14 days measured on day 15 relative to vehicle-treated control; format: functional; conditions: route subcutaneous, read-out: TGI
[19] = AUC (0 to infinity) in mouse at 100 mg/kg, po; format: ADME, organism-based; set-up: time infinity, dose 100 mg/kg, route oral; conditions: plasma
[20] = Cmax in mouse at 100 mg/kg, po; format: ADME, organism-based; set-up: dose 100 mg/kg, route oral; conditions: in vivo
[21] = Oral bioavailability in mouse at 100 mg/kg; format: ADME, organism-based; conditions: in vivo
[22] = molecular target: T1, Mitogen-activated protein kinase kinase kinase 7; assay: Inhibition of TAK1 in human TOV21G cells assessed as inhibition of JNK phosphorylation

Sequence of TAK1/TAB1 (Q15750 whole entry, one chain of several): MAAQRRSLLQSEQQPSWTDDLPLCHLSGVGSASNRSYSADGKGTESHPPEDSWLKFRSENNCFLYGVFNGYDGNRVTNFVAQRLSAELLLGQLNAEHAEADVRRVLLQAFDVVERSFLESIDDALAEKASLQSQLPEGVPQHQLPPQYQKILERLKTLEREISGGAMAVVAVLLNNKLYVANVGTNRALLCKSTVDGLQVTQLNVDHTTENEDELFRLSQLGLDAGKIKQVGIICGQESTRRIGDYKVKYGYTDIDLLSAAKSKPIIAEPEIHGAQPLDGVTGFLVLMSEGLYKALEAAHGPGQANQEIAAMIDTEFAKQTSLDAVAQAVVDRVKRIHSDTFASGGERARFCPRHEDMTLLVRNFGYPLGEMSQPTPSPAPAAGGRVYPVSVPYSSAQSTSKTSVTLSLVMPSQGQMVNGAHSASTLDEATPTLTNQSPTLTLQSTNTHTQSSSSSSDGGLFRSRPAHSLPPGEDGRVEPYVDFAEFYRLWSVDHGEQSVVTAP
Sequence of Vascular endothelial growth factor receptor 2 (P35968 whole entry): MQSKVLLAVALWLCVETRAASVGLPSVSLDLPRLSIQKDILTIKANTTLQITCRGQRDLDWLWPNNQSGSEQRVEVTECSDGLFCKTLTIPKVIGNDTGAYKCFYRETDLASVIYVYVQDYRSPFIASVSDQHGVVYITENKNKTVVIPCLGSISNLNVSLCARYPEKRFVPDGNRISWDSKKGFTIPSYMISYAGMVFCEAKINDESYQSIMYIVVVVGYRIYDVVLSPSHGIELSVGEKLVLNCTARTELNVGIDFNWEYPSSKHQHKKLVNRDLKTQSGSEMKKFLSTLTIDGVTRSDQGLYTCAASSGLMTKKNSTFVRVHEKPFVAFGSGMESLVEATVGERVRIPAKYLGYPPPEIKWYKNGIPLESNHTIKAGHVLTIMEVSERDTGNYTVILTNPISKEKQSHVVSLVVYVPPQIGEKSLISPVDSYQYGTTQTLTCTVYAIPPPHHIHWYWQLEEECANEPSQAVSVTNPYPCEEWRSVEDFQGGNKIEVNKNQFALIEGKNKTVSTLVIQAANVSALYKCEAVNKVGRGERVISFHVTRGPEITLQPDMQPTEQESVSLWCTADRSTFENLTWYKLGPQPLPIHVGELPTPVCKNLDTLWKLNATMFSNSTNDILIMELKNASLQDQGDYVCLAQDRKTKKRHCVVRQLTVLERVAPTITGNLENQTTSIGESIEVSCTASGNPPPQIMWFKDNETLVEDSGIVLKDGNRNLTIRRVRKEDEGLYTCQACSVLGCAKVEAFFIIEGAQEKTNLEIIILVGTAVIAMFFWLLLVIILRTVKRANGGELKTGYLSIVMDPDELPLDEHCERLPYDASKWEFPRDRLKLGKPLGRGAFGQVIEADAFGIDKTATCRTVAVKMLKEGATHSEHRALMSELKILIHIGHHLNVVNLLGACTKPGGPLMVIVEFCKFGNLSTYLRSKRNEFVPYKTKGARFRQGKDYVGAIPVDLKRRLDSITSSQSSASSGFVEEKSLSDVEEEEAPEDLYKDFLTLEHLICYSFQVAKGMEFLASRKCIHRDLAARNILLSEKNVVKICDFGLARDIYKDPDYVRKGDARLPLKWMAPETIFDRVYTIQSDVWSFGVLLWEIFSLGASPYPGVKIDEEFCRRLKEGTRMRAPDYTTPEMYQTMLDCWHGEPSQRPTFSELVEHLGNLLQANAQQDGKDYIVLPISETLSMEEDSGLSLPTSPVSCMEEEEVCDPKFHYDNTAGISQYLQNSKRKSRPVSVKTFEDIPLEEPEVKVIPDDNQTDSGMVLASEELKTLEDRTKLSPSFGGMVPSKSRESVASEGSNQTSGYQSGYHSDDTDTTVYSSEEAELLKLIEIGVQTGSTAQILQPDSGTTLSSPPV
Sequence of Aurora kinase B (Q96GD4 whole entry): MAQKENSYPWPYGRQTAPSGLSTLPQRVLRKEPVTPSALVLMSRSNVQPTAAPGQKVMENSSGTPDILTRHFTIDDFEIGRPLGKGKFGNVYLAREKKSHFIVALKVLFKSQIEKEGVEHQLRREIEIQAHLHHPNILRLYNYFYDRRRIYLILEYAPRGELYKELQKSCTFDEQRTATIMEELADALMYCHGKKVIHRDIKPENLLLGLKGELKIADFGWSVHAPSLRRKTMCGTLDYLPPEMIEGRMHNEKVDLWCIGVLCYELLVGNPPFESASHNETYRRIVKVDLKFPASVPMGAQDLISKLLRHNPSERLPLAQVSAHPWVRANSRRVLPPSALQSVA

Structure (SMILES)	IC50 [1]	IC50 [2]	IC50 [3]	IC50 [4]	further results
Nc1ncc(C2=CCNCC2)c2cc(-c3csc4cnccc34)oc12	23600 nM	–	–	–	–
Cc1c(-c2cnc(N)c3oc(-c4csc5cnccc45)cc23)cnn1C	4100 nM	19900 nM	17400 nM	3000 nM	–
COCC#Cc1cnc(N)c2oc(-c3csc4cnccc34)cc12	2900 nM	–	–	–	–
Nc1ncc(-c2cccnc2)c2cc(-c3csc4cnccc34)oc12	3800 nM	–	–	–	–
Nc1ncc(-c2ccsc2)c2cc(-c3csc4cnccc34)oc12	2200 nM	–	–	–	–
Cc1nn(C)c(C)c1-c1cnc(N)c2oc(-c3csc4cnccc34)cc12	23900 nM	–	–	4400 nM	–
Nc1ncc(-c2cscn2)c2cc(-c3csc4cnccc34)oc12	1400 nM	–	–	–	–
Nc1ncc(-c2cnn([C@H]3CC[C@H](O)CC3)c2)c2c(CF)c(-c3cccc4nnsc34)oc12	17 nM	18300 nM	1500 nM	45 nM	hepatic extraction ratio [5]: 0.49; hepatic extraction ratio [6]: 0.43
Nc1ncc(-c2ccccc2)c2cc(-c3csc4cnccc34)oc12	3200 nM	–	–	–	–
Nc1ncc(-c2cnn([C@H]3CC[C@H](O)CC3)c2)c2c(-c3cncs3)c(-c3cccc4nnsc34)oc12	31 nM	760 nM	1700 nM	43 nM	hepatic extraction ratio [5]: 0.55; hepatic extraction ratio [6]: 0.53
Cn1ccc(-c2cnc(N)c3oc(-c4csc5cnccc45)cc23)c1	4900 nM	–	–	–	–
Nc1ncc(-c2cnn([C@H]3CC[C@H](O)CC3)c2)c2cc(-c3cccc4nnsc34)oc12	9 nM	650 nM	160 nM	15 nM	Tmax [7]: 8 h; Cmax [8]: 7.8 µM; Vd [9]: 4.1 L/kg; half-life [10]: 1.6 h; hepatic extraction ratio [5]: 0.48; clearance [11]: 70 mL/min/kg; AUC(0-inf) [12]: 477 ng·h/mL; AUC(0-inf) [13]: 16000 ng·h/mL; hepatic extraction ratio [6]: 0.63
Cc1ncc(-c2cnc(N)c3oc(-c4csc5cnccc45)cc23)s1	230 nM	–	–	–	–
Nc1ncc(-c2cnn([C@H]3CC[C@H](O)CC3)c2)c2cc(-c3cccc4cnsc34)oc12	–	–	–	–	Cmax [8]: 1.1 µM; Vd [9]: 12 L/kg; half-life [10]: 3.3 h; clearance [11]: 111 mL/min/kg; AUC(0-inf) [12]: 299 ng·h/mL; AUC(0-inf) [13]: 821 ng·h/mL; bioavailability [14]: 27%
Nc1ncc(-c2cnn([C@H]3CC[C@H](O)CC3)c2)c2c(C(F)F)c(-c3cccc4nnsc34)oc12	14 nM	> 20000 nM	1700 nM	20 nM	Cmax [8]: 18.6 µM; Vd [9]: 1 L/kg; half-life [10]: 1.8 h; hepatic extraction ratio [5]: 0.48; clearance [11]: 10 mL/min/kg; AUC(0-inf) [12]: 3440 ng·h/mL; AUC(0-inf) [13]: 33700 ng·h/mL; bioavailability [14]: 98%; hepatic extraction ratio [6]: 0.39
Cc1nn(C)cc1-c1cnc(N)c2oc(-c3csc4cnccc34)cc12	3500 nM	> 20000 nM	> 20000 nM	1000 nM	–
Cc1ccc(-c2cnc(N)c3oc(-c4csc5cnccc45)cc23)o1	2100 nM	–	–	–	–
CC(=O)N1CCC(n2cc(-c3cnc(N)c4oc(-c5csc6cnccc56)cc34)cn2)CC1	–	–	–	–	Cmax [8]: 0.03 µM; Drug metabolism [15]: Active; Vd [9]: 2.5 L/kg; AUC(0-t) [16]: 21 ng·h/mL; Drug metabolism [17]: Active; half-life [10]: 0.1 h; clearance [11]: 178 mL/min/kg; AUC(0-inf) [12]: 187 ng·h/mL; bioavailability [14]: 1%
N#Cc1c(-c2cccc3nnsc23)oc2c(N)ncc(-c3cnn([C@H]4CC[C@H](O)CC4)c3)c12	160 nM	> 20000 nM	> 10000 nM	17 nM	hepatic extraction ratio [5]: 0.38; hepatic extraction ratio [6]: 0.43
Cn1cnc(-c2cnc(N)c3oc(-c4csc5cnccc45)cc23)c1	12700 nM	–	–	–	–
Nc1ncc(-c2cnn([C@H]3CC[C@H](O)CC3)c2)c2c(Cl)c(-c3cccc4nnsc34)oc12	–	> 20000 nM	6500 nM	18 nM	inhibition in vivo at 100 mg/kg [18]: 62%; Cmax [8]: 3.8 µM; Vd [9]: 2.1 L/kg; AUC(0-inf) [19]: 26800 ng·h/mL; half-life [10]: 2.1 h; Cmax [20]: 7.1 µM; hepatic extraction ratio [5]: 0.4; clearance [11]: 20 mL/min/kg; AUC(0-inf) [12]: 1700 ng·h/mL; bioavailability [21]: 32%; AUC(0-inf) [13]: 8770 ng·h/mL; bioavailability [14]: 52%; hepatic extraction ratio [6]: 0.39; IC50 [22]: 28 nM
Cn1cc(-c2cnc(N)c3oc(-c4csc5cnccc45)cc23)c(C#N)n1	22800 nM	–	–	> 10000 nM	–
Cc1ccc(-c2cnc(N)c3oc(-c4csc5cnccc45)cc23)s1	4600 nM	–	–	–	–
Nc1ncc(-c2cnn([C@H]3CC[C@H](O)CC3)c2)c2c(-c3cccnc3)c(-c3cccc4nnsc34)oc12	110 nM	8200 nM	6900 nM	130 nM	hepatic extraction ratio [5]: 0.41; hepatic extraction ratio [6]: 0.48
Nc1ncc(-c2ccoc2)c2cc(-c3csc4cnccc34)oc12	560 nM	–	–	–	–
COc1nn(C)cc1-c1cnc(N)c2oc(-c3csc4cnccc34)cc12	600 nM	> 20000 nM	> 20000 nM	1700 nM	–
Cn1cc(-c2cnc(N)c3oc(-c4csc5cnccc45)cc23)cn1	150 nM	3400 nM	3000 nM	190 nM	–
